Assay results taken from patent US7812022B2 (GlaxoSmithKline LLC, priority 2004, dated 2010).

Legend:
ErbB2 or EGFR = molecular target: T1, ErbB2 or EGFR; experiment: ErbB family substrate phosphorylation enzyme assay (HTRF), Method A or Method B; format: biochemical; conditions: Method B: enzyme mix pre-incubated with compound 1 hour at 20° C., started with substrate mix
T1 construct: enzymes purified from a baculovirus expression system; Reagent production was conducted essentially as described in Brignola, P. S., et al, (2002) J. Biol. Chem. 277(2): 1576-1585
Description: Compounds of the present invention were tested for EGFR, ErbB-2, and ErbB-4 protein tyrosine kinase inhibitory activity in substrate phosphorylation assays using enzymes purified from a baculovirus expression system. Reagent production was conducted essentially as described in Brignola, P. S., et al, (2002) J. Biol. Chem. 277(2): 1576-1585.
The method measures the ability of the isolated enzyme to catalyse the transfer of the gamma-phosphate from ATP onto the tyrosine residue of a biotinylated synthetic peptide referenced “Peptide C” in Brignola, P. S., et al, (2002) J. Biol. Chem. 277(2):1576-1585. The extent of tyrosine phosphorylation was measured using an anti-phosphotyrosine antibody, and quantified by homogenous time-resolved fluorescence (HTRF).
Reactions were performed in black 384-well polystyrene flat-bottom plates in a final volume of 20 ul. Assays were performed by adding 10 μl of each of the following solutions, substrate Mix and enzyme mix: The Substrate mix contained 100 mM 3-[N-morpholino]propanesulfonic acid (MOPS) (pH 7.5), 2 mM MnCl2, 20 μM ATP, 0.01% Tween-20, 0.1 mg/mL (BSA), 0.8 uM peptide substrate, and 1 mM dithiothreitol. The enzyme mix contained 100 mM MOPS (pH7.5); 0.01% Tween-20; 0.1 mg/mL BSA, and either 0.8 nM EGFR, 10 nM ErbB2, or 1 nM ErbB4
During the course of these studies, two separate methods have been used to measure the potency of compounds. In Method A, the substrate mix was added to the compound plates first, then the reaction was started by adding the enzyme mix. In Method B, the enzyme mix was added to the compound plates and the plates were incubated at 20° C. for 1 hour. The reactions were then started by adding the substrate mix.
After initiating the reaction with either method describe above, the reactions were allowed to proceed for 90 minutes at 20° C. The reactions were then terminated by the addition of 20 μl 100 mM EDTA to each well. 40 μl/well of HTRF detection mix were added to the assay plates. The final concentrations of the detection reagents were: 100 mM HEPES (pH7.5), 0.1 mg/mL BSA, 15 nM streptavidin-labeled allophycocyanin (PerkinElmer), and 1 nM europium-labeled anti-phosphotyrosine antibody (PerkinElmer). Assay plates were left unsealed and were counted in a Wallac Multilabel Counter 1420 (PerkinElmer).
Compounds under analysis were dissolved in Me2SO to 1.0 mM and serially diluted 1 to 3 with Me2SO through twelve dilutions. 1 μl of each concentration was transferred to the corresponding well of an assay plate. This creates a final compound concentration range from 0.00027 to 47.6 μM.
The data for dose responses were plotted as % Inhibition calculated with the data reduction formula 100*(1−(U1−C2)/(C1−C2)) versus concentration of compound where U is the unknown value, C1 is the average control value obtained for 4.76% DMSO, and C2 is the average control value obtained for 0.035 M EDTA. Data were fitted with a curve described by: y=((Vmax*x)/(K+x))+Y^2 where Vmax is the upper asymptote, Y2 is the Y intercept, and K is the IC50. The results for each compound were recorded as pIC50s, calculated as follows: pIC50=−Log 10(K)

[1] = system: BT474 and HN5 tumor cell lines; experiment: Methylene blue growth inhibition assay (cellular Method A); format: cell-based, Human; conditions: Homo sapiens, BT-474, 72 h, 3 days, read-out: Activity (Method): growth inhibition IC50 class
Description: Human breast (BT474) and head and neck (HN5) were cultured in low glucose DMEM (Life Technologies 12320-032) containing 10% fetal bovine serum (FBS). Human colon tumor cells (Colo205) were cultured in DMEM (Invitrogen, 10564) containing 10% FBS. The SV40 transformed human mammary epithelial cell line HB4a was transfected with either human H-ras cDNA (HB4a r4.2) or the human c-ErbB2 cDNA (HB4a c5.2). The HB4a clones were cultured in RPMI containing 10% FBS, insulin (5 g/mL), hydrocortisone (5 g/mL), supplemented with the selection agent hygromycin B (50 g/mL). All lines were grown in a humidified incubator at 37° C. in 95% air, 5% CO2. Cells were harvested using trypsin/EDTA, counted using a haemocytometer, and plated in 100 microliters of the appropriate media, at the following densities, in a 96-well tissue culture plate (Falcon 3075): BT474 10,000 cells/well, HN5 3,000 cells/well. The next day, compounds were diluted in DMEM containing […] gentamicin, at twice the final required concentration, from 10 mM stock solutions in DMSO. 100 microliters/well of these dilutions were added to the 100 microliters of media currently on the cell plates. Medium containing 0.6% DMSO was added to control wells. Compounds diluted in DMEM were added to all cell lines. The final concentration of DMSO in all wells was 0.3%. Cells were returned to the incubator (37° C., 10% CO2) for 3 days. Medium was then removed by aspiration. Cell biomass was estimated by staining cells with 90 microliters per well methylene blue (Sigma M9140, 0.5% in 1:1 ethanol:water), and incubation at rt for at least 30 minutes. Stain was removed, and the plates rinsed by immersion in deionized water and air-dried. To release stain from the cells 100 microliters of solubilization solution was added (1% N-lauroyl sarcosine, Sodium salt, Sigma L5125, in PBS), and plates were shaken gently for about 30 minutes. Optical density at 620 nm was measured on a microplate reader. Percent inhibition of cell growth was calculated relative to vehicle treated control wells. Concentration of compound that inhibits 50% of control cell growth (IC50) was interpolated using nonlinear regression (Levenberg-Marquardt) and the equation, y=Vmax*(1−(x/(K+x)))+Y2, where “K” was equal to the IC50. Method B: Celltiter Glo® Growth Inhibition Assays

SMILES	IC50 [1] [nM]	Activity (Method): pIC50 class against ErbB2 or EGFR (ErbB2 or EGFR)
O=C(Nc1cccc(-c2nn3ccccc3c2-c2ccnc(Nc3cccc(F)c3)n2)c1)c1ccc(F)cc1 [Example 15, 4-Fluoro-N-(3-{3-[2-(3-fluoro-phenylamino)-pyrimidin-4-yl]-pyrazolo[1,5-a]pyridin-2-yl}-phenyl)-benzamide]	100 to 1000	+++ (B) (at least one pIC50 measurement of greater than 7 against either ErbB2 or EGFR)
O=C(Nc1cccc(-c2nn3ccccc3c2-c2ccnc(Nc3cccc(F)c3)n2)c1)c1ccccc1C(F)(F)F [Example 16, N-(3-{3-[2-(3-Fluoro-phenylamino)-pyrimidin-4-yl]-pyrazolo[1,5-a]pyridin-2-yl}-phenyl)-2-trifluoromethyl-benzamide]	< 100	+++ (B) (at least one pIC50 measurement of greater than 7 against either ErbB2 or EGFR)
Cc1cccc(C(=O)Nc2cccc(-c3nn4ccccc4c3-c3ccnc(Nc4cccc(F)c4)n3)c2)c1 [Example 18, N-(3-{3-[2-(3-Fluoro-phenylamino)-pyrimidin-4-yl]-pyrazolo[1,5-a]pyridin-2-yl}-phenyl)-3-methyl-benzamide]	100 to 1000	++ (B) (at least one pIC50 measurement greater than 6 against either ErbB2 or EGFR but no measurement greater than pIC50 of 7)
Cc1cc(C(=O)Nc2cccc(-c3nn4ccccc4c3-c3ccnc(Nc4cccc(F)c4)n3)c2)n(C)n1 [Example 23, N-[3-(3-{2-[(3-Fluorophenyl)amino]-4-pyrimidinyl}pyrazolo[1,5-a]pyridin-2-yl)phenyl]-1,3-dimethyl-1H-pyrazole-5-carboxamide]	> 1000	++ (B) (at least one pIC50 measurement greater than 6 against either ErbB2 or EGFR but no measurement greater than pIC50 of 7)
O=C(Nc1cccc(-c2nn3ccccc3c2-c2ccnc(Nc3cccc(F)c3)n2)c1)c1cnc2ccccc2n1 [Example 24, N-[3-(3-{2-[(3-Fluorophenyl)amino]-4-pyrimidinyl}pyrazolo[1,5-a]pyridin-2-yl)phenyl]-2-quinoxalinecarboxamide]	> 1000	+ (B) (no pIC50 measurement greater than 6 against either ErbB2 or EGFR)
Cn1nnc2cc(C(=O)Nc3cccc(-c4nn5ccccc5c4-c4ccnc(Nc5cccc(F)c5)n4)c3)ccc21 [Example 26, N-[3-(3-{2-[(3-fluorophenyl)amino]-4-pyrimidinyl}pyrazolo[1,5-a]pyridin-2-yl)phenyl]-1-methyl-1H-1,2,3-benzotriazole-5-carboxamide]	> 1000	++ (B) (at least one pIC50 measurement greater than 6 against either ErbB2 or EGFR but no measurement greater than pIC50 of 7)
O=C(Nc1cccc(-c2nn3ccccc3c2-c2ccnc(Nc3ccc(N4CCOCC4)cc3)n2)c1)c1c(F)cccc1F [Example 27, 2,6-Difluoro-N-{3-[3-(2-{[4-(4-morpholinyl)phenyl]amino}-4-pyrimidinyl)pyrazolo[1,5-a]pyridin-2-yl]phenyl}benzamide]	< 100	++ (B) (at least one pIC50 measurement greater than 6 against either ErbB2 or EGFR but no measurement greater than pIC50 of 7)

Further lines, with some results ahead:

IC50 [1] [nM]	SMILES	Activity (Method): pIC50 class against ErbB2 or EGFR (ErbB2 or EGFR)
< 100	O=C(Nc1cccc(-c2nn3ccccc3c2-c2ccnc(Nc3cccc(F)c3)n2)c1)c1c(F)cccc1C(F)(F)F [Example 13, 2-Fluoro-N-(3-{3-[2-(3-fluoro-phenylamino)-pyrimidin-4-yl]-pyrazolo[1,5-a]pyridin-2-yl}-phenyl)-6-trifluoromethyl-benzamide]	+++ (B) (at least one pIC50 measurement of greater than 7 against either ErbB2 or EGFR)
< 100	O=C(Nc1cccc(-c2nn3ccccc3c2-c2ccnc(Nc3cccc(F)c3)n2)c1)c1cccc(F)c1F [Example 14, 2,3-Difluoro-N-(3-{3-[2-(3-fluoro-phenylamino)-pyrimidin-4-yl]-pyrazolo[1,5-a]pyridin-2-yl}-phenyl)-benzamide]	+++ (B) (at least one pIC50 measurement of greater than 7 against either ErbB2 or EGFR)
100 to 1000	O=C(Nc1cccc(-c2nn3ccccc3c2-c2ccnc(Nc3cccc(F)c3)n2)c1)c1cccc(F)c1 [Example 17, 3-Fluoro-N-(3-{3-[2-(3-fluoro-phenylamino)-pyrimidin-4-yl]-pyrazolo[1,5-a]pyridin-2-yl}-phenyl)-benzamide]	+++ (B) (at least one pIC50 measurement of greater than 7 against either ErbB2 or EGFR)
100 to 1000	O=C(Nc1cccc(-c2nn3ccccc3c2-c2ccnc(Nc3cccc(F)c3)n2)c1)c1ccc(F)cc1F [Example 19, 2,4-Difluoro-N-(3-{3-[2-(3-fluoro-phenylamino)-pyrimidin-4-yl]-pyrazolo[1,5-a]pyridin-2-yl}-phenyl)-benzamide]	+++ (B) (at least one pIC50 measurement of greater than 7 against either ErbB2 or EGFR)
100 to 1000	O=C(Nc1cccc(-c2nn3ccccc3c2-c2ccnc(Nc3cccc(F)c3)n2)c1)c1ccc(F)cc1Cl [Example 20, 2-Chloro-4-fluoro-N-(3-{3-[2-(3-fluoro-phenylamino)-pyrimidin-4-yl]-pyrazolo[1,5-a]pyridin-2-yl}-phenyl)-benzamide]	++ (B) (at least one pIC50 measurement greater than 6 against either ErbB2 or EGFR but no measurement greater than pIC50 of 7)
100 to 1000	O=C(Nc1cccc(-c2nn3ccccc3c2-c2ccnc(Nc3cccc(F)c3)n2)c1)c1c(F)ccc(F)c1Cl [Example 21, 2-Chloro-3,6-difluoro-N-(3-{3-[2-(3-fluoro-phenylamino)-pyrimidin-4-yl]-pyrazolo[1,5-a]pyridin-2-yl}-phenyl)-benzamide]	+++ (B) (at least one pIC50 measurement of greater than 7 against either ErbB2 or EGFR)
